“And” between values parts separate entries of the source, which are not always exact repeats. Equal entries are not always repeated. Residues, ends and D or L forms follow the SMILES beside them. *: point of attachment. Cbz = O=C(OCc1ccccc1)*; NHPh = c1ccc(N*)cc1; OtBu = CC(C)(C)O*
Biological target: T1, FGF13/Nav1.7 CTD complex (Homo sapiens, UniProt Q92913)
T1 construct: Full-length FGF13-1b (aa 1-192) was subcloned into appropriate plasmids; Nav1.7 residues 1780-1977; expressed in transfected cells; host or cells: HEK293 (inferred; the LCA paragraph only says 'cells')
T1 sequence (Q92913 1-192 isoform Q92913-2): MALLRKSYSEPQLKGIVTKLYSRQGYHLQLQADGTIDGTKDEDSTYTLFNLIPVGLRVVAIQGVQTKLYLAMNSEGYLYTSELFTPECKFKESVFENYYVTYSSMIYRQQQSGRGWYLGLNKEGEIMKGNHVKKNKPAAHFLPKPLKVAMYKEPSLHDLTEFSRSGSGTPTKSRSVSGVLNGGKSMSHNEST
Test: Split-luciferase complementation assay (LCA), CLuc-FGF13/CD4-Nav1.7-CTD-NLuc
Type: cell-based
Set-up: key to LCA dose response, Mean (Figure 1B): % of mean signal of per-plate 0.5% DMSO control wells
Details: for Percentage luminescence, Mean: Fig 1B dose response; for Luminescence signal over time, mean: FGF13, PW164
Description: The respective gene ID numbers used in this study are as follows: NM_033642 (human, FGF13-1b) and NM_002977 (human SCN9A). Full-length FGF13-1b (aa 1-192) was subcloned into appropriate plasmids for use in this investigation, unless otherwise noted. For consistency with AlphaFold modeling presented, numbering of point mutations to FGF13-1b are based on the longest FGF13 isoform (FGF13-1a, NM_004114.2). CLuc-FGF13, […]
and constructs expressing the CLuc or the NLuc fragments of Firefly ( Photinus pyralis) luciferase (24) respectively were engineered, mutated (CLuc-FGF13R110A) and sequenced at the Molecular Genomics Core (University of Texas Medical Branch). The CD4 -Nav1.7-CTD-NLuc cassette was synthesized from GeneArt (Nav1.7 residues 1780-1977) (ThermoFisher) and subcloned at 5'-HindIII and 3’-BsiWi restriction sites in pcDNA3.1 (Invitrogen). Additionally, FGF13 was amplified with polymerase chain reaction (PCR) by using gene-specific primers, and subcloned in pcDNA3.1 at 5’ -BsiWi and 3’-Not I restriction sites. […]
Cell Culture and transfections
HEK293 cells were purchased from ATCC (catalog # CRL-1573). Cells were cultured and incubated at 37 °C with 5% CO2 in medium with equal volumes of Dulbecco modified essential medium (DMEM) and F12 […]
Split-luciferase Complementation Assay (LCA)
Twenty-four hours post transfection, cells were trypsinized using TrypLE (Gibco; cat # 12604013), centrifuged at 1750 rpm for 5 min, triturated in medium, and seeded into white clear-bottom 96-well CELLSTAR µClear® plates (Greiner Bio -One; cat # 655073 ) at ~0.8 x 10^5 cells per well in 200 µl of medium. The cells were incubated for another 24 hours, and then the growth medium was replaced with 100 µl serum -free, phenol red -free DMEM/F-12 medium (Invitrogen). All compounds from the PW - and the ZL-series, including PW164 and ZL192, were dissolved in DMSO, added to a final concentration of 1 –500 μM (0.5 % DMSO) in the serum -free medium and then cells were incubated for two hours. The bioluminescence reaction was initiated by injection of 100 μl of D -luciferin substrate (1.5 mg/ml dissolved in PBS) using a Synergy H4 multimode microplate reader (BioTek). Luminescence readings were initiated after 3 s of mild plate shaking and performed at 2 min intervals for 20-30 min with integration times of 0.5 s, and the c ells were maintained throughout the measurements at 37 °C. Raw signal intensity was computed by averaging peak luminescence plus two adjacent time points.
Normalized signal intensity was expressed as the percentage of mean signal intensity relative to per plate control wells treated with 0.5% DMSO. […]
The FGF13 was immobilized to the final 1 0050 RU, and Nav1.7 to the 10 or 1000 RU, and no protein was coupled to the control channel of the chip. For each compound, stock solution (50 mM) was serially diluted from 300 to 1 µM; the Nav1.7 -CTD peptide (1876 -1899, 23 amino acids, MW ~2.8 kDa) was se rially diluted from 150 to 1 nM in PBS-P+ (PBS supplemented 0.005% with tween 20). Samples were injected over the chip for 60 s followed by dissociation for 120 s at the flow rate 40 µl/min; finally, the chip was regenerated using the solution of 1.5 M NaCl, 3% DMSO for 180 s. The interaction of compound or un-conjugated Nav1.7 -CTD peptide with FGF13, as […]

Compound: COC(=O)[C@@H](NC(=O)[C@H](CCC(=O)OC(C)(C)C)NC(=O)[C@H](CC(C)C)NC(=O)[C@@H]1CCCN1C(=O)OCc1ccccc1)C(C)C [PW164] (Cbz-PLE(OtBu)V-OMe)
- LCA screening of the PW-series compounds against the FGF13/Nav1.7 complex (Fig. S2C) (50 μM, individual replicates, vehicle about 100): 52.9829 and 54.4974 and 52.792 and 43.8067 and 53.8102 and 54.3574 and 65.3028 and 53.9247
- Percentage luminescence, Mean (Log (conc(M)) -3.6): 36.225%
- Percentage luminescence, Mean (Log (conc(M)) -3.82): 36.175%
- Percentage luminescence, Mean (Log (conc(M)) -4): 36.8%
- Percentage luminescence, Mean (Log (conc(M)) -4.12): 37.575%
- Percentage luminescence, Mean (Log (conc(M)) -4.22): 41.95%
- Percentage luminescence, Mean (Log (conc(M)) -4.3): 49.1%
- Percentage luminescence, Mean (Log (conc(M)) -4.4): 55.95%
- Percentage luminescence, Mean (Log (conc(M)) -4.6): 72.975%
- Percentage luminescence, Mean (Log (conc(M)) -4.7): 78.7625%
- Percentage luminescence, Mean (Log (conc(M)) -4.82): 95.2%
- Percentage luminescence, Mean (Log (conc(M)) -5): 102.25%
- Percentage luminescence, Mean (Log (conc(M)) -5.5): 98.45%
- Percentage luminescence, Mean (Log (conc(M)) -6): 97.8125%
- Luminescence signal over time, mean (Fig 1B, Time 0): 229.9
- Luminescence signal over time, mean (Fig 1B, Time 5): 547.2
- Luminescence signal over time, mean (Fig 1B, Time 10): 954.8
- Luminescence signal over time, mean (Fig 1B, Time 15): 1153.7
- Percentage luminescence, single replicates (Fig 1B, FGF13, PW164 (20 μM)): 42.7306% and 39.5799% and 34.1155% and 47.555% and 46.8165% and 80.4398% and 35.0509% and 53.5117% and 52.6748% and 30.1772% and 36.3308%
- LCA analysis of FGF13/Nav1.7 (Figure 8D, WT PW164, replicate values beside WT DMSO): 48.4338 and 51.009 and 48.3348 and 45.8586 and 44.3729 and 45.9577 and 44.0758 and 49.7469 and 51.824 and 46.8389 and 47.9813
- IC50 (LCA dose response, Fig 1B, read-out: IC50, inhibition of FGF13/Nav1.7 complex assembly): 29 ± 5 µM

Compound: CC(=O)N[C@@H](Cc1ccccc1)C(=O)N[C@@H](CC(C)C)C(=O)N1CCC[C@H]1C(=O)N[C@@H](CCCCN)C(=O)Nc1ccccc1 [ZL192] (Ac-FLPK-NHPh)
- LCA signal, FGF13 (Figure 1B), individual replicates (FGF13, ZL192 vs Vehicle): 148.142 and 186.697 and 151.094 and 172.833 and 154.782 and 172.987 and 159.506 and 193.88 and 161.695 and 170.692 and 150.24 and 163.294
- EC50 (LCA dose-response, Fig 4B, read-out: EC50, increase of FGF13/Nav1.7 complex assembly): 28 ± 5 µM
- LCA dose response, Mean (Figure 1B) (Log (conc(M)) -3.6): 132.85
- LCA dose response, Mean (Figure 1B) (Log (conc(M)) -3.82): 139.626
- LCA dose response, Mean (Figure 1B) (Log (conc(M)) -4): 140.168
- LCA dose response, Mean (Figure 1B) (Log (conc(M)) -4.12): 146.164
- LCA dose response, Mean (Figure 1B) (Log (conc(M)) -4.22): 133.106
- LCA dose response, Mean (Figure 1B) (Log (conc(M)) -4.3): 141.107
- LCA dose response, Mean (Figure 1B) (Log (conc(M)) -4.4): 130.374
- LCA dose response, Mean (Figure 1B) (Log (conc(M)) -4.6): 116.119
- LCA dose response, Mean (Figure 1B) (Log (conc(M)) -4.7): 109.491
- LCA dose response, Mean (Figure 1B) (Log (conc(M)) -4.82): 110.318
- LCA dose response, Mean (Figure 1B) (Log (conc(M)) -5): 102.555
- LCA dose response, Mean (Figure 1B) (Log (conc(M)) -5.5): 100.737
- LCA dose response, Mean (Figure 1B) (Log (conc(M)) -6): 101.723
